# Experiments:
# Experiment in all cases: relative viability (nuclei count vs DMSO), 5 days (fraction); higher = more cells survive
# [1] = compound: COc1cc2nc(N3CCCN(C)CC3)nc(NC3CCN(Cc4ccccc4)CC3)c2cc1OC + COc1cc2c(Oc3ccc(NC(=O)C4(C(=O)Nc5ccc(F)cc5)CC4)cc3F)ccnc2cc1OCCCN1CCOCC1 [Foretinib] (partner 0.25 µM)
# In short: (§1)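 For relative viability, nuclei counts in treated wells were divided by those in vehicle wells. Lung cancer cell lines had been pin-tool dosed in 1536-well plates the day after seeding and cultured for 5 days, then fixed and stained in one step (final 0.05% Triton X-100, 1% formaldehyde, 1 ug/ml Hoechst) and imaged at 4×. Doses were one drug alone or a fixed anchor-drug dose plus five library-drug doses (not always all listed) in √10 steps, and values are duplicate-plate medians.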
# [2] = compound: COc1cc2nc(N3CCCN(C)CC3)nc(NC3CCN(Cc4ccccc4)CC3)c2cc1OC + O=C(CCCCCCC(=O)Nc1ccccc1)NO [Vorinostat] (partner 1 µM)
# In short: as §1
# AZD6482 + Trametinib = compound: Cc1cc([C@@H](C)Nc2ccccc2C(=O)O)c2nc(N3CCOCC3)cc(=O)n2c1 [AZD6482] + CC(=O)Nc1cccc(-n2c(=O)n(C3CC3)c(=O)c3c(Nc4ccc(I)cc4F)n(C)c(=O)c(C)c32)c1 [Trametinib] (partner 0.02 µM)
# In short: as §1
# AZD6482 + Navitoclax = compound: Cc1cc([C@@H](C)Nc2ccccc2C(=O)O)c2nc(N3CCOCC3)cc(=O)n2c1 [AZD6482] + CC1(C)CCC(c2ccc(Cl)cc2)=C(CN2CCN(c3ccc(C(=O)NS(=O)(=O)c4ccc(N[C@H](CCN5CCOCC5)CSc5ccccc5)c(S(=O)(=O)C(F)(F)F)c4)cc3)CC2)C1 [Navitoclax] (partner 0.5 µM)
# In short: as §1
Cell Line,relative viability ([1]; first compound 0.2 µM),relative viability ([1]; first compound 0.6325 µM),relative viability ([1]; first compound 2 µM),relative viability ([1]; first compound 6.325 µM),relative viability ([2]; first compound 0.2 µM),relative viability ([2]; first compound 0.6325 µM),relative viability ([2]; first compound 2 µM),relative viability ([2]; first compound 6.325 µM),relative viability (AZD6482 + Trametinib; first compound 0.08 µM),relative viability (AZD6482 + Trametinib; first compound 0.253 µM),relative viability (AZD6482 + Trametinib; first compound 0.8 µM),relative viability (AZD6482 + Trametinib; first compound 2.53 µM),relative viability (AZD6482 + Trametinib; first compound 8 µM),relative viability (AZD6482 + Navitoclax; first compound 0.08 µM),relative viability (AZD6482 + Navitoclax; first compound 0.253 µM),relative viability (AZD6482 + Navitoclax; first compound 0.8 µM),relative viability (AZD6482 + Navitoclax; first compound 2.53 µM),relative viability (AZD6482 + Navitoclax; first compound 8 µM)
LK-2,1.49,0.932,1.13,1.12,0.302,0.194,0.364,0.209,0.616,0.649,0.782,0.623,0.564,0.779,0.716,0.932,0.681,0.782
LOU-NH91,0.933,0.996,0.866,0.993,0.942,1.06,0.845,0.827,0.752,0.8,0.757,0.603,0.623,0.579,0.651,0.659,0.441,0.518
LU99A,0.895,0.864,0.821,0.803,0.473,0.546,0.517,0.44,0.457,0.478,0.539,0.568,0.475,0.753,0.757,0.81,0.515,0.529
LXF-289,0.936,0.993,0.984,1,0.722,0.783,0.796,0.654,0.681,0.77,0.801,0.717,0.609,0.974,0.955,0.997,0.954,0.854
NCI-H23,0.914,1.06,1.12,0.918,0.571,0.597,0.576,0.471,0.33,0.34,0.326,0.283,0.247,0.828,0.696,0.785,0.578,0.568
NCI-H322M,0.899,0.94,1.05,0.923,0.838,0.939,0.855,0.868,0.51,0.534,0.58,0.452,0.443,1.24,1,1.07,0.675,0.798
NCI-H441,0.957,0.954,0.928,1.02,0.77,0.647,0.927,0.862,0.422,0.435,0.39,–,0.312,0.752,0.59,0.563,0.702,0.632
NCI-H460,0.922,0.952,1.03,0.993,0.834,0.72,0.659,0.603,0.138,0.106,0.146,0.0746,0.126,0.968,1.08,1.07,0.859,0.694
NCI-H520,0.683,0.633,0.622,0.598,0.77,0.77,0.586,0.209,0.567,0.463,0.433,0.201,0.26,0.839,0.785,0.703,–,0.344
NCI-H596,0.847,0.902,0.78,0.76,0.623,0.717,0.591,0.57,0.633,0.817,0.774,0.589,0.59,0.596,0.827,0.925,0.912,0.836
NCI-H647,1.15,0.952,1.35,0.918,0.588,0.669,0.614,0.24,0.32,0.367,0.333,0.254,0.209,0.949,–,0.929,0.555,0.806
NCI-H727,0.771,1.04,0.889,0.832,1.27,1.14,1.15,1.07,0.382,0.358,0.394,–,0.386,0.469,0.455,0.421,–,0.235
NCI-H838,1.08,1.17,1.06,1.03,0.772,0.695,0.938,0.626,0.419,0.494,0.451,0.316,0.336,0.984,1.08,1.05,0.622,0.623
NCI-H1355,0.973,0.968,1.05,0.919,0.654,0.618,0.724,0.605,0.345,0.374,0.37,0.339,0.305,0.551,0.697,0.711,0.588,0.61
NCI-H1395,0.895,1,0.93,0.858,0.617,1.24,0.896,0.491,0.949,0.8,0.785,0.522,0.627,0.831,0.822,0.803,0.542,0.733
NCI-H1437,1.21,1.21,1.38,1.23,0.871,0.778,0.982,0.734,0.506,0.451,0.473,0.298,0.282,1.06,1.13,1.12,0.816,0.692
NCI-H1650,1.11,1.06,1.31,0.755,0.66,0.656,0.747,0.465,0.62,0.455,0.614,0.546,0.527,0.873,–,0.747,0.702,0.819
NCI-H1651,0.85,0.688,0.934,0.807,0.56,0.617,0.561,0.548,0.767,0.7,0.835,0.691,0.68,0.883,0.917,0.881,0.676,0.636

Cell Line,relative viability ([1]; first compound 0.2 µM),relative viability ([1]; first compound 0.6325 µM),relative viability ([1]; first compound 2 µM),relative viability ([1]; first compound 6.325 µM),relative viability ([2]; first compound 0.2 µM),relative viability ([2]; first compound 0.6325 µM),relative viability ([2]; first compound 2 µM),relative viability ([2]; first compound 6.325 µM),relative viability (AZD6482 + Trametinib; first compound 0.08 µM),relative viability (AZD6482 + Trametinib; first compound 0.253 µM),relative viability (AZD6482 + Trametinib; first compound 0.8 µM),relative viability (AZD6482 + Trametinib; first compound 2.53 µM),relative viability (AZD6482 + Trametinib; first compound 8 µM),relative viability (AZD6482 + Navitoclax; first compound 0.08 µM),relative viability (AZD6482 + Navitoclax; first compound 0.253 µM),relative viability (AZD6482 + Navitoclax; first compound 0.8 µM),relative viability (AZD6482 + Navitoclax; first compound 2.53 µM),relative viability (AZD6482 + Navitoclax; first compound 8 µM)
NCI-H1666,0.897,0.969,1.13,0.932,1.08,0.943,0.958,1.06,0.766,0.944,0.808,0.81,0.835,0.794,0.846,0.706,0.749,0.528
NCI-H1734,0.934,0.846,0.849,0.91,0.813,0.76,0.778,0.717,0.613,0.656,0.565,0.519,0.491,0.73,0.604,0.726,0.449,0.776
NCI-H1755,0.9,0.899,0.922,0.815,0.777,0.67,0.759,0.573,0.7,0.75,0.693,0.542,0.508,0.833,0.737,0.682,0.43,0.498
NCI-H1793,0.591,0.882,0.848,0.701,0.692,1.06,0.871,0.638,0.37,0.397,0.352,0.32,0.283,0.29,0.23,0.251,–,0.312
NCI-H1915,1.05,1.01,1.1,1.12,0.506,0.426,0.514,0.472,0.257,0.27,0.29,0.239,0.226,0.772,0.696,0.83,0.739,0.739
NCI-H1944,0.882,0.867,0.862,0.807,0.58,0.597,0.512,0.517,0.38,0.375,0.426,0.351,0.335,1.02,0.953,1.03,0.887,0.821
NCI-H1975,0.972,0.97,1,0.955,0.397,0.677,0.797,0.654,0.287,0.32,0.307,0.278,0.39,0.919,1.05,1.17,0.856,0.786
NCI-H1993,0.801,0.735,0.756,0.912,0.778,0.798,0.855,0.661,0.506,0.498,0.446,0.52,0.475,0.779,0.784,–,–,0.654
NCI-H2009,1.27,1.22,1.23,1.09,0.803,0.762,0.767,0.569,0.181,0.163,0.21,0.139,0.185,1.11,1.14,1.23,0.757,0.96
NCI-H2023,0.943,0.834,0.834,0.455,0.565,0.63,0.509,0.0993,0.455,0.52,0.547,0.28,0.389,0.891,0.999,0.803,0.615,0.621
NCI-H2085,0.917,0.926,0.965,0.944,0.799,0.954,0.802,0.724,0.266,0.231,0.218,0.223,0.218,0.803,0.585,0.538,0.395,0.462
NCI-H2087,1.12,0.99,1.31,1.25,0.806,0.618,0.521,0.611,0.176,0.162,0.133,0.132,0.183,0.847,0.909,0.966,0.818,0.895
NCI-H2126,1.09,1.15,1.16,1.09,0.8,0.802,0.688,0.69,0.538,0.531,0.448,0.39,0.351,0.744,0.671,0.727,0.571,0.543
NCI-H2170,0.982,0.955,0.996,1.01,0.858,0.765,0.86,0.755,0.878,0.879,0.844,0.836,0.733,0.502,0.558,0.594,0.444,0.476
NCI-H2228,1.02,0.711,0.729,0.499,0.37,0.662,0.54,0.25,0.342,0.579,0.457,0.484,0.494,0.738,0.963,0.803,0.634,0.616
NCI-H2347,0.791,0.834,1.02,1,0.712,0.725,0.51,0.504,0.276,0.271,0.222,0.265,0.238,–,0.423,0.445,0.283,0.235
NCI-H2405,1.05,1,1.06,1.07,1.01,0.989,1.02,0.976,0.459,0.559,0.531,0.365,0.395,0.488,–,0.778,0.489,0.509

# Source: the supplement of paper PMC10307832
